Data: publication PMC12292390, “Discovery of Dietary Plant Flavonols as Novel Potent Inhibitors Targeting DYRK1A Kinase” (Biomolecules, 2025)
“Also recorded” adds a separate entry of the source. Read-outs that look alike come from different tables or passages of the source.

Tests used:
[1] = target: T1, DYRK1A (Homo sapiens, UniProt Q13627); test: DYRK1A kinase inhibition assay (ADP-Glo Kinase Assay, DYRKtide substrate); assay type: biochemical; conditions: for DYRK1A inhibition (in words): at the concentrations tested;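 on all read-outs here: DYRKtide phosphorylation read out by luminescence, reaction run in Tris buffer pH 7.5 with MgCl2 and BSA, containing 1% DMSO or methanol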
T1 construct: The DNA encoding DYRK1A with a non-cleavable N-terminal MBP-tag was synthesized by Genscript; made in house; host or cells: E. coli BL21 (DE3) RIPL

[2] = ref ChemSpider, cited from earlier work; for LogP: ACD/LogP; for HBA (hydrogen bond acceptor number): first figure of HBA/HBD; for PSA: polar surface area; for HBD (hydrogen bond donor number): second figure of HBA/HBD
[3] = tested on: HeLa cells; test: Cell viability assay (WST-8); assay type: cell-based; conditions: 48 h treatment, WST-8, various concentrations
Protocol: (§1) HeLa cells were maintained in high-glucose Dulbecco’s Modified Eagle Medium (DMEM) supplemented with 10% (v/v) fetal bovine serum (FBS) at 37 °C in an incubator with 5% CO2.
HeLa cells were seeded at a density of 3.3 × 10^3 per well in 96-well plates and incubated overnight. Cells were then treated with various concentrations of flavonoids. After 48 h incubation, 10 μL of WST-8 reagent (ab228554, Abcam, Waltham, MA, USA) was added to each well and incubated for 1 h at 37 °C. Absorbance was measured at 460 nm using a microtiter plate reader (SpectraMax iD3, Molecular Devices, LLC., San Jose, CA, USA).

[4] = tested on: HeLa cells; test: Cell morphology analysis (microscopy); assay type: cell-based; conditions: 72 h
Protocol: as §1
HeLa cells were seeded at a density of 1.5 × 10^5 per well in 6-well plates and incubated overnight. Cells were then treated with different concentrations of flavonoids for 72 h. The final concentrations of methanol and DMSO were 4% and 1%, respectively. Morphology changes were observed using an Olympus IX83 (Evident Scientific, Tokyo, Japan) inverted microscope with a 40× objective.

[5] = ADP-Glo, 100 μM ATP, 1 mg/mL DYRKtide, 30 nM DYRK1A, 1 h room temperature, read-out: IC50

Row | Structure (SMILES) | DYRK1A inhibition (in words) [1] | LogP [2] | HBA (hydrogen bond acceptor number) [2] | PSA [2] [Å^2] | HBD (hydrogen bond donor number) [2] | IC50 [1, 5] [nM] | DYRK1A inhibition (in words) ([1]; listed as apigenin) | cytotoxicity / cell viability of HeLa cells (in words) [3] | cytotoxicity / cell viability of HeLa cells (in words) ([3]; listed as fisetin) | morphological changes in HeLa cells ([4]; 40 μM, 4% methanol) | IC50 [1] [nM] | DYRK1A inhibition (in words) ([1]; listed as kaempferide) | morphological changes in HeLa cells ([4]; 100 μM, 1% DMSO)
1 | O=c1c(O)c(-c2ccccc2)oc2ccc(O)cc12 [3,6-Dihydroxyflavone] | only weak inhibition; also recorded: low inhibition of kinase | 3.64 | 4 | 67 | 2 |  |  |  |  |  |  |  | 
2 | O=c1c(O)c(-c2ccccc2)oc2cc(O)ccc12 [3,7-Dihydroxyflavone] | only weak inhibition; also recorded: low inhibition of kinase | 3.27 | 4 | 67 | 2 |  |  |  |  |  |  |  | 
3 | O=c1c(O)c(-c2ccccc2)oc2ccccc12 [3-Hydroxyflavone] | no detectable activity; also recorded: low inhibition of kinase | 3.76 | 3 | 47 | 1 |  |  |  |  |  |  |  | 
4 | O=c1cc(-c2ccc(O)cc2)oc2cc(O)cc(O)c12 [Apigenin] | effective inhibition | 3.04 | 5 | 87 | 3 | 1020 | only weak inhibition |  |  |  |  |  | 
5 | O=C1c2c(O)cc(O)cc2O[C@H](c2cc(O)c(O)c(O)c2)[C@H]1O [Dihydromyricetin] | no detectable activity; also recorded: lack of activity | 1.23 | 8 | 148 | 6 |  |  |  |  |  |  |  | 
6 | O=c1c(O)c(-c2ccc(O)c(O)c2)oc2cc(O)ccc12 [Fisetin] |  | 2.52 | 6 | 107 | 4 | 149 |  | slight cytotoxicity effect | significantly reduced | clear apoptotic features, including cell shrinkage, detachment, and the formation of apoptosis bodies; also recorded: classic apoptosis features |  |  | 
7 | COc1cc(-c2oc3cc(O)cc(O)c3c(=O)c2O)ccc1O [Isorhamnetin] | moderate activity | 1.76 | 7 | 116 | 4 |  |  | minimal cytotoxicity |  | clear apoptotic features, including cell shrinkage, detachment, and the formation of apoptosis bodies; also recorded: classic apoptosis features | 418 |  | 
8 | COc1ccc(-c2oc3cc(O)cc(O)c3c(=O)c2O)cc1 [Kaempferide] | effective inhibition | 2.74 | 6 | 96 | 3 | 3520 |  |  |  |  |  | only weak inhibition; also recorded: low inhibition of kinase | 
9 | O=c1c(O)c(-c2ccc(O)cc2)oc2cc(O)cc(O)c12 [Kaempferol, 3,5,7,4′-tetrahydroxyflavone] | moderate activity | 2.05 | 6 | 107 | 4 | 296 |  | significant cytotoxicity; also recorded: significantly reduced; also recorded: significant cytotoxic and pro-apoptotic effects |  |  |  |  | significant elongation and shrinkage; also recorded: elongated morphology
10 | O=c1cc(-c2ccc(O)c(O)c2)oc2cc(O)cc(O)c12 [Luteolin] |  | 2.40 | 6 | 107 | 4 | 798 |  |  |  |  |  |  | 
11 | O=c1c(O)c(-c2ccc(O)cc2O)oc2cc(O)cc(O)c12 [Morin] |  | 1.61 | 7 | 127 | 5 | 478 |  | slight cytotoxicity effect; also recorded: significantly reduced |  | clear apoptotic features, including cell shrinkage, detachment, and the formation of apoptosis bodies; also recorded: classic apoptosis features |  |  | 
12 | O=c1c(O)c(-c2cc(O)c(O)c(O)c2)oc2cc(O)cc(O)c12 [Myricetin] |  | 2.11 | 8 | 148 | 6 | 633 |  |  |  |  |  |  | 
13 | O=C1C[C@@H](c2ccc(O)cc2)Oc2cc(O)cc(O)c21 [Naringenin] | only weak inhibition | 3.19 | 5 | 87 | 3 |  |  |  |  |  |  |  | 
14 | O=c1c(O)c(-c2ccc(O)c(O)c2)oc2cc(O)cc(O)c12 [Quercetin, reference compound] |  | 2.08 | 7 | 127 | 5 | 738 |  |  |  |  |  |  | 
